Results on five compounds are retold here after patent US20040086901A1, “Database for analyzing gene function and method of analyzing gene function by dspa” (priority 2000, published 2004).

What all share (format): cell-based, mouse
The subject of experiment [1] is NIH3T3 cells overexpressing PKCepsilon-KN. As to the kind of experiment: MTT cell viability, PKCepsilon-KN overexpressing cells vs parental line. The settings on record: 3 to 4 days. The procedure, abridged: (§1)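 Each full-length cDNA is expressed from a CMV vector in NIH3T3 cells, and a high-expressing clone is compared with the parental line. Viability is measured by MTT after 3–4 days with graded drug concentrations, and the log IC40 ratio is reported.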

The test system of experiment [2] is NIH3T3 cells overexpressing TK. The experiment can be described thus: MTT cell viability, TK overexpressing cells vs parental line. The settings on record: TK high-expressing cells / parental cell line, 3 to 4 days. The procedure, abridged: (§2)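 Stable NIH3T3 transfectants (cDNA in pRc-CMV-type vector, G-418-selected, high expressers picked by Western blot) and parental cells were seeded at 1×10^5 cells/ml into twofold serial drug dilutions and grown 3–4 days. MTT formazan was read at 574/655 nm, and log ratios of IC40 values were derived.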

In experiment [3] the test system is NIH3T3 cells overexpressing RhoA. As to the kind of experiment: MTT cell viability, RhoA overexpressing cells vs parental line. The conditions noted are these: RhoA high-expressing cells / parental cell line, 3 to 4 days. In outline: as §2
Experiment [4] has as its system NIH3T3 cells overexpressing STAT1. As to the kind of experiment: MTT cell viability, STAT1 overexpressing cells vs parental line. The conditions noted are these: STAT1 high-expressing cells / parental cell line, 3 to 4 days. The procedure, abridged:
as §1

Experiment [5] deals with NIH3T3 cells overexpressing p33/ING1. As to the kind of experiment: MTT cell viability, p33/ING1 overexpressing cells vs parental line. The settings on record: p33/ING1 high-expressing cells / parental cell line, 3 to 4 days. The procedure, abridged: as §2
Experiment [6] has as its system NIH3T3 cells overexpressing PDGF-R-Del. The experiment can be described thus: MTT cell viability, PDGF-R-Del overexpressing cells vs parental line. The conditions noted are these: PDGF-R-Del high-expressing cells / parental cell line, 3 to 4 days. The procedure, abridged: as §2
For experiment [7], the system named is NIH3T3 cells overexpressing T.Tn. The experiment can be described thus: MTT cell viability, T.Tn overexpressing cells vs parental line. The conditions noted are these: T.Tn high-expressing cells / parental cell line, 3 to 4 days. In outline:
as §1

In experiment [8] the test system is NIH3T3 cells overexpressing calpastatin. The experiment can be described thus: MTT cell viability, calpastatin overexpressing cells vs parental line. The conditions noted are these: calpastatin high-expressing cells / parental cell line, 3 to 4 days. In outline:
as §2

Experiment [9] deals with NIH3T3 cells overexpressing C/EBPb. As to the kind of experiment: MTT cell viability, C/EBPb overexpressing cells vs parental line. The settings on record: C/EBPb high-expressing cells / parental cell line, 3 to 4 days. The procedure, abridged:
as §1

Experiment [10] deals with NIH3T3 cells overexpressing v-src. As to the kind of experiment: MTT cell viability, v-src overexpressing cells vs parental line. The settings on record: v-src high-expressing cells / parental cell line, 3 to 4 days. In outline:
as §2

Experiment [11] deals with NIH3T3 cells overexpressing DAN. As to the kind of experiment: MTT cell viability, DAN overexpressing cells vs parental line. The conditions noted are these: DAN high-expressing cells / parental cell line, 3 to 4 days. The procedure, abridged: as §2
Experiment [12] has as its system NIH3T3 cells overexpressing cystatin alpha. As to the kind of experiment: MTT cell viability, cystatin alpha overexpressing cells vs parental line. The settings on record: cystatin alpha high-expressing cells / parental cell line, 3 to 4 days. In outline: as §2
Experiment [13] relates to NIH3T3 cells overexpressing Bax. As to the kind of experiment: MTT cell viability, Bax overexpressing cells vs parental line. The conditions noted are these: 3 to 4 days. In outline: as §1
The test system of experiment [14] is NIH3T3 cells overexpressing CP-antisense. The experiment can be described thus: MTT cell viability, CP-antisense cells vs parental line. The settings on record: 3 to 4 days. In outline: as §2
Experiment [15] has as its system NIH3T3 cells overexpressing erbB2. As to the kind of experiment: MTT cell viability, erbB2 overexpressing cells vs parental line. The settings on record: erbB2 high-expressing cells / parental cell line, 3 to 4 days. In outline: as §2
Experiment [16] deals with NIH3T3 cells overexpressing C/EBPa. The experiment can be described thus: MTT cell viability, C/EBPa overexpressing cells vs parental line. The conditions noted are these: C/EBPa high-expressing cells / parental cell line, 3 to 4 days. In outline:
as §1

The subject of experiment [17] is NIH3T3 cells overexpressing JNK-DN. The experiment can be described thus: MTT cell viability, JNK-DN overexpressing cells vs parental line. The conditions noted are these: JNK-DN high-expressing cells / parental cell line, 3 to 4 days. In outline: as §2
The subject of experiment [18] is NIH3T3 cells overexpressing cAMP-PK-CS. As to the kind of experiment: MTT cell viability, cAMP-PK-CS overexpressing cells vs parental line. The conditions noted are these: cAMP-PK-CS high-expressing cells / parental cell line, 3 to 4 days. In outline: as §1
Experiment [19] deals with NIH3T3 cells, TPA (PKC downreg). As to the kind of experiment: MTT cell viability, TPA (PKC downreg) cells vs parental line. The settings on record: 3 to 4 days.
Setting [20] is: PKCepsilon-KN (first of two lines) high-expressing cells / parental cell line.
The mark [21] stands for this setting: PKCepsilon-KN (second of two lines) high-expressing cells / parental cell line.
[22] abbreviates: Bax (first of two Bax lines) high-expressing cells / parental cell line.
Where [23] appears, read: Bax (second of two Bax lines) high-expressing cells / parental cell line.

Molecules are shown by their SMILES.

With `O=[As]O` [NaAsO2, sodium arsenite], the “logarithmic value of ratio of IC40 values” in [1] (setting [20]) is −0.07; in experiment [1] (setting [21]), 0.35; in experiment [2], 0.18; in experiment [3], 0.07; in [4] it was 0.16; in experiment [5], −0.07. For the same compound, the “logarithmic value of ratio of IC40 values” in experiment [6] was 0.00; in [7], −0.05; in experiment [8], 0; in experiment [9], 0.41; in [10] it was 0.11; in experiment [11], −0.15. The “logarithmic value of ratio of IC40 values” in experiment [12] is −0.05; in [13] (setting [22]), −0.10; in experiment [13] (setting [23]), 0.34; in experiment [14], 0.02; in experiment [15], −0.15; in experiment [16], −0.40. In addition, the figures for the “logarithmic value of ratio of IC40 values” in experiment [17], in experiment [18] and in experiment [19] were −0.07, 0.07 and −0.20, respectively.
`C=C1[C@@H](O)[C@@H]2O[C@]3(CC[C@H](/C=C/[C@@H](C)[C@@H]4CC(C)=C[C@@]5(O[C@H](C[C@@](C)(O)C(=O)O)CC[C@H]5O)O4)O3)CC[C@H]2O[C@@H]1[C@@H](O)C[C@H](C)[C@H]1O[C@@]2(CCCCO2)CC[C@H]1C` [OA, okadaic acid]: the “logarithmic value of ratio of IC40 values” in [1] (setting [20]) came out at 0.00; in experiment [1] (setting [21]) it was 0.00; in experiment [2] it was 0.00; in experiment [3] it was 0.00; in experiment [4] it was 0.14; in experiment [5], 0.11. Moreover, the “logarithmic value of ratio of IC40 values” in [6] is 0.21; in experiment [7], −0.16; in experiment [8], −0.04; in [9] it was 0.21; in [10], 0.18; in experiment [11], 0.04. Also, the “logarithmic value of ratio of IC40 values” in experiment [12] was 0.08; in experiment [13] (setting [22]) it was 0.00; in experiment [13] (setting [23]), 0.00; in [14], 0.13; in experiment [15] it was −0.19; in experiment [16], 0.12. Besides, the “logarithmic value of ratio of IC40 values” in experiment [17] is listed as −0.07; in experiment [18], 0.08; in experiment [19], 0.12.
In the case of `C[C@@H]1O[C@@H](O[C@H]2C[C@@H](O)[C@]3(CO)[C@H]4[C@H](O)C[C@]5(C)[C@@H](C6=CC(=O)OC6)CC[C@]5(O)[C@@H]4CC[C@]3(O)C2)[C@H](O)[C@H](O)[C@H]1O` [Ouabain, ouabain], the “logarithmic value of ratio of IC40 values” in [1] (setting [20]) is listed as −0.15; in experiment [1] (setting [21]) it was −0.12; in experiment [2], 0.00; in [3], 0.15; in [4], 0.04; in experiment [5], 0.10. Also, the “logarithmic value of ratio of IC40 values” in experiment [6] is 0.19; in experiment [7], 0.28; in experiment [8], −0.3; in experiment [9], 0.00; in experiment [10], 0.00; in experiment [11] it was 0.74. Also, the “logarithmic value of ratio of IC40 values” in [12] is 1.28; in experiment [13] (setting [22]), 0.40; in experiment [13] (setting [23]), 0.00; in experiment [14], 0.28; in experiment [15], 0.18; in experiment [16], 0.00. Also, the “logarithmic value of ratio of IC40 values” was −0.08 in experiment [17], 0.00 in [18] and −0.08 in experiment [19].
On to `C=CC1=C(C)c2cc3[n-]c(cc4nc(cc5[n-]c(cc1n2)c(C)c5CCC(=O)O)C(CCC(=O)O)=C4C)c(C)c3C=C.[Cl-].[Cl-].[Sn+4]` [SnPP], for which the “logarithmic value of ratio of IC40 values” in experiment [1] (setting [20]) is 0.27; in [1] (setting [21]), 0.24; in [2] it was 0.00; in [3] it was 0.14; in experiment [4], 0.08; in [5] it was −0.23. In addition, the “logarithmic value of ratio of IC40 values” in experiment [6] was 0.08; in [7], 0.00; in [8], 0.486; in [9], −0.50; in [10] it was −0.17; in experiment [11] it was −0.49. The “logarithmic value of ratio of IC40 values” in experiment [12] is recorded as 0.00; in [13] (setting [22]) it was 0.17; in experiment [13] (setting [23]), 0.10; in experiment [14] it was 0.10; in experiment [15], −0.25; in experiment [16] it was 0.00. Further, the “logarithmic value of ratio of IC40 values” in experiment [17] is recorded as −0.11; in experiment [18], 0.02; in experiment [19], −0.20.
`C/C=C(/C)C(=O)O[C@H]1C(C)=C2[C@H]([C@@H]1OC(=O)CCCCCCC)[C@@](C)(OC(C)=O)C[C@H](OC(=O)CCC)[C@@]1(O)[C@H]2OC(=O)[C@@]1(C)O` [Thapsigargin, thapsigargin]: the “logarithmic value of ratio of IC40 values” in [1] (setting [20]) is reported as 0.09; in [1] (setting [21]) it was 0.20; in experiment [2] it was 0.06; in experiment [3], 0.26; in [4], 0.30; in [5] it was 0.49. Further, the “logarithmic value of ratio of IC40 values” is recorded as 0.24 in experiment [6]; 0.32 in [7]; 0.046 in experiment [8]; 0.29 in experiment [9]; 0.32 in [10]; 0.18 in experiment [11]. The “logarithmic value of ratio of IC40 values” in experiment [12] is 0.04; in experiment [13] (setting [22]), −0.21; in [13] (setting [23]) it was 0.20; in experiment [14], −0.30; in experiment [15], 0.11; in experiment [16] it was −0.09. The “logarithmic value of ratio of IC40 values” is recorded as 0.24 in experiment [17], 0.05 in [18] and −0.23 in experiment [19].
